The values below come from article PMC11203657, “Glyphosate-Induced Phosphonatase Operons in Soil Bacteria of the Genus Achromobacter” (International Journal of Molecular Sciences, 2024).

One series concerns the target T1, PhnX19-II (Achromobacter insolitus, UniProt Z9I4E4M620).
T1 construct: native, purified from wild-type strain, untagged; homodimer; MALDI match to OAD13647.1
T1 sequence (Z9I4E4M620 1-273): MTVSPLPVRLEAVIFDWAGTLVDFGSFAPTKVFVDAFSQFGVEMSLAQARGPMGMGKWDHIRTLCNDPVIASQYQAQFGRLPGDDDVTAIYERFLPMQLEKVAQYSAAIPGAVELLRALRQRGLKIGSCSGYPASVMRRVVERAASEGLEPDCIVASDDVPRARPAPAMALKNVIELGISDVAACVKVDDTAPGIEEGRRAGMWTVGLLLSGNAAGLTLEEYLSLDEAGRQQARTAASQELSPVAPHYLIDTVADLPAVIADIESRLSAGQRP
Briefly: inhibition kinetics, ADH/NADH-coupled PAA hydrolysis, vector method. The format is biochemical. The settings on record: substrate PAA 0.1-5 mM, pH 7.5, 10 mM MgCl2, 25 °C. The text has this: inhibition kinetics, ADH/NADH-coupled PAA hydrolysis, vector method on PhnX19-II

The target of the next series is T2, PhnX19-I (Achromobacter insolitus, UniProt Z9I4E4M620).
T2 construct: native, purified from wild-type strain, untagged; homodimer; MALDI match to OAD13647.1
T2 sequence (Z9I4E4M620 1-273): T1 sequence (Z9I4E4M620 1-273)
The series is described as above. The format is biochemical. As to conditions: substrate PAA 0.1-5 mM, pH 7.5, 10 mM MgCl2, 25 °C. The text has this:
inhibition kinetics, ADH/NADH-coupled PAA hydrolysis, vector method on PhnX19-I

The target of series [1] is T3, PhnX16 (Achromobacter aegrifaciens, UniProt A0ABU2D8D6).
T3 construct: gene phnX; native, purified from wild-type strain, untagged; subunit ~31 kDa, homodimer ~60-65 kDa
T3 sequence (A0ABU2D8D6 4-276): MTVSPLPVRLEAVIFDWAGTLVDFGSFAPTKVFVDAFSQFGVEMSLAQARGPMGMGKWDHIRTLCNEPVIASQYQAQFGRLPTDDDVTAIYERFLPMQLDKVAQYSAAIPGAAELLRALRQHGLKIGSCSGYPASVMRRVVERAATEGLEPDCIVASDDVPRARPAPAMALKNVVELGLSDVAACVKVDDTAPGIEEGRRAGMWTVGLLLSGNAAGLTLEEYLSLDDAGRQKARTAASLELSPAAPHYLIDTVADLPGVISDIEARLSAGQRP
Briefly: activation kinetics, ADH/NADH-coupled PAA hydrolysis, vector method. The format is biochemical. As to conditions: substrate PAA 0.1-5 mM, pH 7.5, 10 mM MgCl2, 25 °C; Ka is an activation constant; competitive-type activator. The text has this:
activation kinetics, ADH/NADH-coupled PAA hydrolysis, vector method on PhnX16

Series [2] has as its target T3, PhnX16. Briefly: inhibition kinetics, ADH/NADH-coupled PAA hydrolysis, vector method. The format is biochemical. The text has this:
inhibition kinetics, ADH/NADH-coupled PAA hydrolysis, vector method on PhnX16

Substrate in the series “purified protein”: O=CCP(=O)(O)O
Nature of the series: purified protein. The format is biochemical, Achromobacter aegrifaciens. The settings on record: pH 7.5, 50 mM Tris-HCl, 10 mM MgCl2, 0.1 mM DTT, 25 °C.

Where [3] appears, read: noncompetitive in table, uncompetitive in text, read-out: Effectors / 2,4-DNPA.
Where [4] appears, read: noncompetitive inhibitor, read-out: Effectors / BPA.
[5] abbreviates: uncompetitive inhibitor, read-out: Effectors / GP.
Setting [6] is: competitive inhibitor, read-out: Effectors / 2-AEP.

Read-outs that look alike come from different tables or passages of the source.

The term Km denotes the concentration of substrate that gives half-maximal velocity. As a reminder, the Vmax is the rate approached at saturating substrate. The kcat is the maximal rate divided by the concentration of active sites. By kcat/Km is commonly meant the second-order rate constant that governs catalysis at low substrate concentration.

With `CC(=O)Oc1ccc([N+](=O)[O-])cc1[N+](=O)[O-]` [2,4-DNPA, 2,4-dinitrophenyl acetate], the Ki amounted to 760 µM on PhnX19-II (setting [3]) and 730 µM on PhnX19-I (setting [3]).
Take `NCP(=O)(O)O` [AMPA, aminomethylphosphonic acid]: the “Ka (activation constant)” value on PhnX16 [1] turned out to be 43.5 mM.
As to `CCCCP(=O)(O)O` [BPA, butylphosphonic acid], the Ki is 750 µM at PhnX16 [2], 300 µM at PhnX19-II (setting [4]) and 390 µM at PhnX19-I (setting [4]).
Regarding `O=C(O)CNCP(=O)(O)O` [GP, N-phosphonomethylglycine], the Ki on PhnX16 [2] (read-out: Effectors / GP) amounted to 11600 µM; at PhnX19-II (setting [5]), 5400 µM; on PhnX19-I (setting [5]), 4000 µM.
With `NCCP(=O)(O)O` [compound 1, 2-aminoethylphosphonic acid], the “Effectors / 2-AEP” value at PhnX16 [1] was found to be 21 mM. Besides, the Ki on PhnX19-II (setting [6]) worked out at 2480 µM; on PhnX19-I (setting [6]), 2200 µM.

B1: PhnX16 (Achromobacter aegrifaciens) (protein)
chain: T3 sequence (A0ABU2D8D6 4-276)
notes: native, purified from wild-type strain, untagged; subunit ~31 kDa, homodimer ~60-65 kDa
Regarding B1, in “purified protein”, the Km came to 889 ± 138 µM, the maximum rate (Vmax) came out at 1.2 µmol/min/mg, the kcat stood at 0.6 ± 0.1 s⁻¹ and the specificity constant (kcat/Km) was determined as 670 M⁻¹ s⁻¹.

B2: PhnX16R (Achromobacter aegrifaciens) (protein)
chain: T3 sequence (A0ABU2D8D6 4-276)
notes: recombinant full length, C-terminal His6 tag kept, pET-22b without pelB, E. coli BL21(DE3); homodimer
Consider B2, for which, in “purified protein”, the Michaelis-Menten constant (Km) came out at 641 ± 23 µM, the Vmax was 1.12 µmol/min/mg, the turnover number (kcat) came out at 0.56 ± 0.05 s⁻¹ and the kcat/Km came out at 875 M⁻¹ s⁻¹.
